Test results taken from patent US8592468B2, “Bacterial thioredoxin reductase inhibitors and methods for use thereof” (Thioredoxin Systems AB, priority 2006, dated 2013).
Values after ≈ are worked out from the molar mass of the structure shown.

What was measured:
[1] = test system: Mycobacterium tuberculosis; test: Inhibition of Mycobacterium tuberculosis by ebselen, radiometric BACTEC 460 system; type: cell-based
Helicobacter pylori = test: Bactericidal effects of ebselen on Helicobacter pylori (MBC); type: cell-based; design: key to Sensitivity to ebselen: S: sensitive; R: resistant
Procedure: The bacteria were cultured in 96-well microtiter plates with a microaerophilic environment at 37° C. for 4 days. The whole amount of the wells was then plated on GC agar plates containing different concentrations of ebselen. Ebselen was diluted in a two-fold series (0.39-200 μg/ml), the minimal bactericidal concentration (MBC) was determined by the first concentration with a total bactericidal effect.

Mammalian TrxR = details: from reference; cited from earlier work
Gor^- DHB4 E. coli = test: Bacterial inhibition by ebselen derivates, MIC; details: Escherichia coli, 4 h, read-out: MIC for Gor^- DHB4 E. coli
Procedure: E. coli DHB4 strains wt, gshA^−, gor^−, oxyR^− were cultured overnight in LB medium. […] OD 600 was detected and DMSO was used as the control. […] The data are the means of two experiments.

## O=c1c2ccccc2[se]n1-c1ccccc1 [EbSe 6, 2-phenyl-1,2-benzisoselenazol-3(2H)-one]
[1]; Mycobacterium tuberculosis
  MIC: < 20 µg/mL
[1]; strain BTB 98-310 (MDR), ebselen 10 μg/ml
  Sensitivity to ebselen: R
[1]; strain BTB 98-310 (MDR), ebselen 20 μg/ml
  Sensitivity to ebselen: S
[1]; strain BTB 98-310 (MDR), ebselen 40 μg/ml
  Sensitivity to ebselen: S
[1]; strain BTB 98-310 (MDR), ebselen 80 μg/ml
  Sensitivity to ebselen: S
[1]; strain H37Rv, ebselen 10 μg/ml
  Sensitivity to ebselen: R
[1]; strain H37Rv, ebselen 20 μg/ml
  Sensitivity to ebselen: S
[1]; strain H37Rv, ebselen 40 μg/ml
  Sensitivity to ebselen: S
[1]; strain H37Rv, ebselen 80 μg/ml
  Sensitivity to ebselen: S
[1]; strain Panel3:24 (MDR), ebselen 10 μg/ml
  Sensitivity to ebselen: R
[1]; strain Panel3:24 (MDR), ebselen 20 μg/ml
  Sensitivity to ebselen: S
[1]; strain Panel3:24 (MDR), ebselen 40 μg/ml
  Sensitivity to ebselen: S
[1]; strain Panel3:24 (MDR), ebselen 80 μg/ml
  Sensitivity to ebselen: S
Helicobacter pylori; strain MR G162, ebselen 0.78 μg/ml
  Sensitivity to ebselen: R
Helicobacter pylori; strain MR G162, ebselen 1.56 μg/ml
  Sensitivity to ebselen: R
Helicobacter pylori; strain MR G162, ebselen 3.125 μg/ml
  Sensitivity to ebselen: R
Helicobacter pylori; strain MR G162, ebselen 6.25 μg/ml
  Sensitivity to ebselen: R
Helicobacter pylori; strain MR G162, ebselen 25 μg/ml
  Sensitivity to ebselen: S
Helicobacter pylori; strain MR G162, ebselen 50 μg/ml
  Sensitivity to ebselen: S
Helicobacter pylori; strain MR G162, ebselen 100 μg/ml
  Sensitivity to ebselen: S
Helicobacter pylori; strain MR G193, ebselen 0.78 μg/ml
  Sensitivity to ebselen: R
Helicobacter pylori; strain MR G193, ebselen 1.56 μg/ml
  Sensitivity to ebselen: R
Helicobacter pylori; strain MR G193, ebselen 3.125 μg/ml
  Sensitivity to ebselen: R
Helicobacter pylori; strain MR G193, ebselen 6.25 μg/ml
  Sensitivity to ebselen: R
Helicobacter pylori; strain MR G193, ebselen 25 μg/ml
  Sensitivity to ebselen: S
Helicobacter pylori; strain MR G193, ebselen 50 μg/ml
  Sensitivity to ebselen: S
Helicobacter pylori; strain MR G193, ebselen 100 μg/ml
  Sensitivity to ebselen: S
Helicobacter pylori; strain MS G6, ebselen 0.78 μg/ml
  Sensitivity to ebselen: R
Helicobacter pylori; strain MS G6, ebselen 1.56 μg/ml
  Sensitivity to ebselen: R
Helicobacter pylori; strain MS G6, ebselen 3.125 μg/ml
  Sensitivity to ebselen: S
Helicobacter pylori; strain MS G6, ebselen 6.25 μg/ml
  Sensitivity to ebselen: S
Helicobacter pylori; strain MS G6, ebselen 25 μg/ml
  Sensitivity to ebselen: S
Helicobacter pylori; strain MS G6, ebselen 50 μg/ml
  Sensitivity to ebselen: S
Helicobacter pylori; strain MS G6, ebselen 100 μg/ml
  Sensitivity to ebselen: S
Helicobacter pylori; strain MS G142, ebselen 0.78 μg/ml
  Sensitivity to ebselen: R
Helicobacter pylori; strain MS G142, ebselen 1.56 μg/ml
  Sensitivity to ebselen: R
Helicobacter pylori; strain MS G142, ebselen 3.125 μg/ml
  Sensitivity to ebselen: R
Helicobacter pylori; strain MS G142, ebselen 6.25 μg/ml
  Sensitivity to ebselen: S
Helicobacter pylori; strain MS G142, ebselen 25 μg/ml
  Sensitivity to ebselen: S
Helicobacter pylori; strain MS G142, ebselen 50 μg/ml
  Sensitivity to ebselen: S
Helicobacter pylori; strain MS G142, ebselen 100 μg/ml
  Sensitivity to ebselen: S
Helicobacter pylori; two macrolide sensitive strains, listed as ebselen
  minimal bactericidal concentration (MBC): 6.25 µg/mL (≈ 22.8 µM)
Mammalian TrxR
  Km: 2.5 µM
  kcat: 9.8 s⁻¹
  kcat/KM: 3.92e+06 M⁻¹ s⁻¹
Gor^- DHB4 E. coli
  MIC: 15 µM (≈ 4.11 µg/mL)
